“And” between values parts separate entries of the source, which are not always exact repeats. Identical values can stand only once. Counter-ions that a name gives are not always drawn.
Experiments:
Format in all cases: cell-based
[1] = system: Hsp47 (Serpinh1); assay: qRT-PCR gene expression in mouse PCLS: Hsp47; details: 48 h, in the presence of BAs, highest concentration (30 µM CPZ)
Experimental: (§1) In short, freshly prepared PCLS were transferred to 12-well plates (Greiner bio-one GmbH, Austria), one slice per well. Each well was filled with 1.3 mL pre-heated (37 ℃) and oxygenated (80%) Williams Medium E (1X, glutaMAX-1), which had been supplemented with 25 mM D-glucose monohydrate and 50 μg/ml Gentamicin (denoted as WME GG). […] The DMSO concentration used was below 0.5% in the incubation medium, equivalent to DMSO concentrations in solutions prepared by dilution of BA stock solutions with WME GG.
(§2) Three PCLS incubated under a given condition were pooled in a 1.5-mL Rnase-free test tube, snap-frozen in liquid nitrogen, and stored at – 80 °C until analysis. RNA was isolated using a FavorPrep Tissue Total RNA Mini Kit (Favorgen, Vienna, Austria). Subsequently, the RNA yield was quantified using a NanoDrop One instrument (Thermo Fisher Scientific, Massachusetts, USA). Isolated RNA was reverse-transcribed to cDNA using a cDNA synthesis kit (Reverse Transcription System, Promega, Benelux B.V.). […]
(§3) qRT-PCR was used to determine the relative mRNA expression levels for the mouse target genes: Bsep (Abcb11), Mrp2 (Abcc2), Mrp3 (Abcc3), Mrp4 (Abcc4), Ntcp (Slc10a1), Fxr (Nr1h4), Cyp7a1 (Cyp7a1), Collagen type 1a1 (Col1a1), Hsp47 (Serpinh1). […] Samples were measured in duplicates. […] Results are expressed as log2(fold change).

[2] = system: Bsep (Abcb11); assay: qRT-PCR gene expression in mouse PCLS: Bsep; details: 48 h, in the presence and absence of BAs, vs control without drug
Experimental: (§4) In short, freshly prepared PCLS were transferred to 12-well plates (Greiner bio-one GmbH, Austria), one slice per well.
(§5) Three PCLS incubated under a given condition were pooled in a 1.5-mL Rnase-free test tube, snap-frozen in liquid nitrogen, and stored at – 80 °C until analysis. RNA was isolated using a FavorPrep Tissue Total RNA Mini Kit (Favorgen, Vienna, Austria). Subsequently, the RNA yield was quantified using a NanoDrop One instrument (Thermo Fisher Scientific, Massachusetts, USA). Isolated RNA was reverse-transcribed to cDNA using a cDNA synthesis kit (Reverse Transcription System, Promega, Benelux B.V.). The cDNA samples were subsequently loaded in the thermal cycler with a program set to 22 °C for 10 min, 42 °C for 15 min, and 95 °C for 5 min.
(§6) qRT-PCR was used to determine the relative mRNA expression levels for the mouse target genes: Bsep (Abcb11), Mrp2 (Abcc2), Mrp3 (Abcc3), Mrp4 (Abcc4), Ntcp (Slc10a1), Fxr (Nr1h4), Cyp7a1 (Cyp7a1), Collagen type 1a1 (Col1a1), Hsp47 (Serpinh1). Primer sequences of the genes tested are given in Supplementary Table S1. QRT-PCR was performed using, the dye, FastStart Universal SYBR Green Master Mix (Roche Diagnostics Netherlands B.V., Almere, the Netherlands) with the ViiA™ 7 Real-Time PCR System (Applied Biosystems, Bleiswijk, the Netherlands). The first cycle constituted 10 min at 95 °C, followed by 40 cycles of 15 s at 95 °C, 30 s at 60 °C and 30 s at 72 °C, followed by 1 cycle dissociation stage (15 s: 95 °C, 60 °C and 95 °C). A minimum of four mouse livers was used for each experiment, using three PCLS per condition. Samples were measured in duplicates. […] Results are expressed as log2(fold change).

[3] = system: Fxr (Nr1h4); assay: qRT-PCR gene expression in mouse PCLS: Fxr; details: 48 h, 30 µM CPZ in the presence of the humanized BA mixture
Experimental: as §1, §2, §3

[4] = system: Mrp3 (Abcc3); assay: qRT-PCR gene expression in mouse PCLS: Mrp3; details: 48 h, in the presence and absence of BAs
Experimental: as §4, §5
as §6, with “The first cycle constituted 10 min at 95 °C, followed by 40 cycles of 15 s at 95 °C, 30 s at 60 °C and 30 s at 72 °C, followed by 1 cycle dissociation stage (15 s: 95 °C, 60 °C and 95 °C). A minimum of four mouse livers was used for each experiment, using three PCLS per condition.” left out

[5] = system: mouse PCLS; assay: LC–MS/MS quantification of intracellular BAs in mouse PCLS; details: 48 h
Experimental: In short, freshly prepared PCLS were transferred to 12-well plates (Greiner bio-one GmbH, Austria), one slice per well. […] The composition of the human-like BA mixture was based on serum concentrations in mice and humans, measured by […]. […] A Shimadzu Nexera X2 HPLC system with binary pumps was interfaced to a Thermo Scientific TSQ Quantum ultra-triple quadrupole mass spectrometer. The BA analysis was performed by liquid chromatography-tandem mass spectrometry (LC-MS/MS). Xcalibur software version 2.0.7 by Thermo Scientific was applied in the data processing. […] Phenomenex, Utrecht, the Netherlands) reversed-phase column was used to separate the BAs. The column and autosampler temperatures were set at 55 °C and 4 °C, respectively. The injection volume was 15 μL, and the flow was set at 0.3 mL/min. […] Intracellular BA concentrations in PCLS were measured by LC-MS/MS. Sample preparation for these measurements of intracellular BAs was performed as follows. […] Hereafter, three slices for each condition were pooled in a 1.5-mL test tube, snap-frozen in liquid nitrogen and stored at -80 °C until analysis. […] Samples were subsequently centrifuged for 15 min at 15 °C and 13,000 rpm. The supernatant was collected in a new tube, and the samples were concentrated using a Concentrator plus centrifuge (Eppendorf, Germany). […] The concentrations of CA, CDCA, DCA, LCA, UDCA, HDCA, […] and GCA were determined with MRM-based LC-MS as described above.

[6] = with humanized BA mixture, CPZ 15 µM, CSA 1 µM, GB 25 µM
[7] = with humanized BA mixture, CPZ 30 µM, CSA 6 µM, GB 65 µM
[8] = without BA mixture, CPZ 15 µM, CSA 1 µM, GB 25 µM
[9] = without BA mixture, CPZ 30 µM, CSA 6 µM, GB 65 µM

CN(C)CCCN1c2ccccc2Sc2ccc(Cl)cc21 [CPZ, Chlorpromazine hydrochloride]
Hsp47 gene expression [1]: significantly increased | Bsep gene expression [2]: reduces | Fxr gene expression [3]: small, but not significant, increase | Mrp3 gene expression [4]: reduces | Effect on total intracellular BA concentration ([5]; in the absence of the BA mixture): increased the total intracellular concentration of BAs | Intracellular CA concentration [5, 6]: 259.9±32.0 pmol/mg protein | Intracellular CDCA concentration [5, 6]: 20.9±1.8 pmol/mg protein | Intracellular DCA concentration [5, 6]: 87.7±14.0 pmol/mg protein | Intracellular GCA concentration [5, 6]: 34.7±16.0 pmol/mg protein | Intracellular HDCA concentration [5, 6]: 4.0±2.5 pmol/mg protein | Intracellular LCA concentration [5, 6]: 3.4±1.3 pmol/mg protein | Intracellular TCA concentration [5, 6]: 244.1±42.8 pmol/mg protein | Intracellular TCDCA concentration [5, 6]: 10.1±0.2 pmol/mg protein | Intracellular TDCA concentration [5, 6]: 14.1±0.8 pmol/mg protein | Intracellular THDCA concentration [5, 6]: 9.4±1.4 pmol/mg protein | Intracellular UDCA concentration [5, 6]: 34.2±4.0 pmol/mg protein | Total intracellular concentration of 11 BAs [5, 6]: 722.5±95.4 pmol/mg protein | Intracellular CA concentration [5, 7]: 314.1±29.7 pmol/mg protein | Intracellular CDCA concentration [5, 7]: 41.3±6.4 pmol/mg protein | Intracellular DCA concentration [5, 7]: 297 pmol/mg protein and 297.9±25.1 pmol/mg protein | Intracellular GCA concentration [5, 7]: 26.1±3.5 pmol/mg protein | Intracellular HDCA concentration [5, 7]: 13.6±3.9 pmol/mg protein | Intracellular LCA concentration [5, 7]: 14.9±8.6 pmol/mg protein | Intracellular TCA concentration [5, 7]: 351.2±67.0 pmol/mg protein | Intracellular TCDCA concentration [5, 7]: 18.2±5.3 pmol/mg protein | Intracellular TDCA concentration [5, 7]: 44.3±5.1 pmol/mg protein | Intracellular THDCA concentration [5, 7]: 9.0±3.0 pmol/mg protein | Intracellular UDCA concentration [5, 7]: 46.3±3.0 pmol/mg protein | Effect on total intracellular BA concentration ([5]; with humanized BA mixture, vs control): intracellular accumulation of BAs | Intracellular CA concentration [5, 8]: 0.3±0.0 pmol/mg protein | Intracellular CDCA concentration [5, 8]: 0.2±0.2 pmol/mg protein | Intracellular DCA concentration [5, 8]: 0.1±0.1 pmol/mg protein | Intracellular GCA concentration [5, 8]: 0.0±0.0 pmol/mg protein | Intracellular HDCA concentration [5, 8]: 0.0±0.0 pmol/mg protein | Intracellular LCA concentration [5, 8]: 0.2±0.1 pmol/mg protein | Intracellular TCA concentration [5, 8]: 0.8±0.1 pmol/mg protein | Intracellular TCDCA concentration [5, 8]: 14.4±1.7 pmol/mg protein | Intracellular TDCA concentration [5, 8]: 0.1±0.1 pmol/mg protein | Intracellular THDCA concentration [5, 8]: 2.4±0.3 pmol/mg protein | Intracellular UDCA concentration [5, 8]: 0.0±0.0 pmol/mg protein | Total intracellular concentration of 11 BAs [5, 8]: 18.7±0.0 pmol/mg protein | Intracellular CA concentration [5, 9]: 0.4±0.1 pmol/mg protein | Intracellular CDCA concentration [5, 9]: 0.4±0.2 pmol/mg protein | Intracellular DCA concentration [5, 9]: 0.1±0.1 pmol/mg protein | Intracellular GCA concentration [5, 9]: 0.0±0.0 pmol/mg protein | Intracellular HDCA concentration [5, 9]: 0.0±0.0 pmol/mg protein | Intracellular LCA concentration [5, 9]: 0.3±0.2 pmol/mg protein | Intracellular TCA concentration [5, 9]: 1.2±0.1 pmol/mg protein | Intracellular TCDCA concentration [5, 9]: 25.0±2.2 pmol/mg protein | Intracellular TDCA concentration [5, 9]: 0.1±0.1 pmol/mg protein | Intracellular THDCA concentration [5, 9]: 5.2±0.7 pmol/mg protein | Intracellular UDCA concentration [5, 9]: 0.0±0.0 pmol/mg protein | Total intracellular concentration of 11 BAs [5, 9]: 32.7±0.0 pmol/mg protein
